≈ marks a conversion by molar mass, not a printed value.
Columns and labels:
Campylobacter jejuni [1] = assay: Antimicrobial activity against Campylobacter jejuni DC7 harboring protein L4 G74D mutant by agar dilution method; type: functional
Campylobacter jejuni [2] = assay: Antimicrobial activity against Campylobacter jejuni JL290 harboring protein L22 with insertion of amino acid TSH at position 98 selected at 8 ug/ml after 3 to 4 days by agar dilution method; type: functional
Campylobacter jejuni [3] = assay: Antimicrobial activity against Campylobacter jejuni DC14 harboring protein L4 G57D mutant by agar dilution method
Campylobacter jejuni [4] = assay: Antimicrobial activity against Campylobacter jejuni harboring mutation in cmeB by agar dilution method relative to wild type Campylobacter jejuni; type: functional
Campylobacter jejuni [5] = assay: Antimicrobial activity against Campylobacter jejuni JL305 harboring protein L22 with insertion of amino acid TSH at position 98 selected at 4 to 16 times MIC after 3 to 4 days by agar dilution method; type: functional
Campylobacter jejuni [6] = assay: Antimicrobial activity against Campylobacter jejuni DC2 infected in 3 days old chicken by agar dilution method; type: functional
Campylobacter jejuni [7] = assay: Antimicrobial activity against Campylobacter jejuni DC4 by agar dilution method; type: functional
Campylobacter jejuni [8] = assay: Antimicrobial activity against Campylobacter jejuni DC2 infected in 15 days old chicken by agar dilution method in presence of feed with tylosin; type: functional
Campylobacter jejuni [9] = assay: Antimicrobial activity against Campylobacter jejuni JL296 selected at 4 to 16 times MIC after 3 to 4 days by agar dilution method; type: functional
Campylobacter jejuni [10] = assay: Antimicrobial activity against Campylobacter jejuni DC1 by agar dilution method; type: functional
Campylobacter jejuni [11] = assay: Antimicrobial activity against Campylobacter jejuni DC8 harboring protein L4 G74D mutant by agar dilution method; type: functional
Campylobacter jejuni [12] = assay: Antimicrobial activity against Campylobacter jejuni JL291 harboring protein L22 with insertion of amino acid TSH at position 98 selected at 4 to 16 times MIC after 3 to 4 days by agar dilution method; type: functional
Campylobacter jejuni [13] = assay: Antimicrobial activity against Campylobacter jejuni JL293 selected at 4 to 16 times MIC after 3 to 4 days by agar dilution method; type: functional
Campylobacter jejuni [14] = assay: Antimicrobial activity against Campylobacter jejuni DC10 harboring protein L4 G57D mutant by agar dilution method; type: functional
Campylobacter jejuni [15] = assay: Antimicrobial activity against Campylobacter jejuni DC33 harboring 23S rRNA A2074G mutant by agar dilution method; type: functional
Campylobacter jejuni [16] = assay: Antimicrobial activity against Campylobacter jejuni DC17 harboring protein L4 G57D mutant by agar dilution method
Campylobacter jejuni [17] = assay: Antimicrobial activity against Campylobacter jejuni DC37 harboring protein L4 G74D mutant by agar dilution method; type: functional
Campylobacter jejuni [18] = assay: Antimicrobial activity against Campylobacter jejuni DC39 harboring protein L4 G74D and G57V mutant by agar dilution method; type: functional
Campylobacter jejuni [19] = assay: Antimicrobial activity against Campylobacter jejuni DC29 by agar dilution method; type: functional
Campylobacter jejuni [20] = assay: Antimicrobial activity against Campylobacter jejuni JL308 harboring protein L22 with insertion of amino acid TSH at position 98 selected at 4 to 16 times MIC after 3 to 4 days by agar dilution method; type: functional
Campylobacter jejuni [21] = assay: Antimicrobial activity against Campylobacter jejuni JL303 harboring protein L22 with insertion of amino acid TSH at position 98 selected at 4 to 16 times MIC after 3 to 4 days by agar dilution method; type: functional
Campylobacter jejuni [22] = assay: Antimicrobial activity against Campylobacter jejuni JL276 selected at 4 ug/ml after 3 to 4 days by agar dilution method; type: functional
Campylobacter jejuni [23] = assay: Antimicrobial activity against tylosin pre-exposed compound-resistant Campylobacter jejuni; type: functional
Campylobacter jejuni [24] = assay: Antimicrobial activity against Campylobacter jejuni JL279 selected at 4 to 16 times MIC after 3 to 4 days by agar dilution method; type: functional
Campylobacter jejuni [25] = assay: Antimicrobial activity against Campylobacter jejuni DC12 harboring protein L4 G74D mutant by agar dilution method; type: functional
Campylobacter jejuni [26] = assay: Antimicrobial activity against Campylobacter jejuni DC23 harboring protein L4 G74D mutant by agar dilution method; type: functional
Campylobacter jejuni [27] = assay: Antimicrobial activity against Campylobacter jejuni JL295 selected at 2 ug/ml after 3 to 4 days by agar dilution method; type: functional
Campylobacter jejuni [28] = assay: Antimicrobial activity against Campylobacter jejuni DC34 harboring protein L4 G74D mutant by agar dilution method; type: functional
Campylobacter jejuni [29] = assay: Antimicrobial activity against Campylobacter jejuni DC21 harboring protein L4 G74D mutant by agar dilution method; type: functional
Campylobacter jejuni [30] = assay: Antimicrobial activity against Campylobacter jejuni DC18 harboring protein L4 G74D mutant by agar dilution method; type: functional
Campylobacter jejuni [31] = assay: Antimicrobial activity against Campylobacter jejuni DC35 harboring protein L4 G74D mutant by agar dilution method; type: functional
Campylobacter jejuni [32] = assay: Antimicrobial activity against Campylobacter jejuni JL289 harboring 23S rRNA A2074C mutant selected at 4 to 16 times MIC after 3 to 4 days by agar dilution method; type: functional
Campylobacter jejuni [33] = assay: Antimicrobial activity against Campylobacter jejuni DC9 harboring 23S rRNA A2074G mutant by agar dilution method; type: functional
Campylobacter jejuni [34] = assay: Antimicrobial activity against Campylobacter jejuni DC13 harboring protein L4 G74D mutant by agar dilution method; type: functional
Campylobacter jejuni [35] = assay: Antimicrobial activity against Campylobacter jejuni DC3 harboring 23S rRNA A2074G mutant by agar dilution method; type: functional
Campylobacter jejuni [36] = assay: Antimicrobial activity against Campylobacter jejuni DC30 by agar dilution method; type: functional
Campylobacter jejuni [37] = assay: Antimicrobial activity against Campylobacter jejuni DC2 harboring protein L4 G74D mutant by agar dilution method; type: functional
Campylobacter jejuni [38] = assay: Antimicrobial activity against Campylobacter jejuni JL277 selected at 4 to 16 times MIC after 3 to 4 days by agar dilution method; type: functional
Campylobacter jejuni [39] = assay: Antimicrobial activity against Campylobacter jejuni DC28 harboring protein L4 G74D mutant by agar dilution method; type: functional

CC[C@H]1OC(=O)[C@H](C)[C@@H](O[C@H]2C[C@@](C)(OC)[C@@H](O)[C@H](C)O2)[C@H](C)[C@@H](O[C@@H]2O[C@H](C)C[C@H](N(C)C)[C@H]2O)[C@](C)(O)C[C@@H](C)C(=O)[C@H](C)[C@@H](O)[C@]1(C)O [ERYTHROMYCIN]
MIC (Campylobacter jejuni [1]): 8 µg/mL (≈ 10.9 µM)
MIC (Campylobacter jejuni [2]): 32 µg/mL (≈ 43.6 µM)
MIC (Campylobacter jejuni [3]): 32 µg/mL (≈ 43.6 µM)
fold change (FC) (Campylobacter jejuni [4]): 8
MIC (Campylobacter jejuni [5]): 256 µg/mL (≈ 349 µM)
MIC (Campylobacter jejuni [6]): 32 µg/mL (≈ 43.6 µM)
MIC (Campylobacter jejuni [7]): 8 µg/mL (≈ 10.9 µM)
MIC (Campylobacter jejuni [8]): 32 µg/mL
MIC (Campylobacter jejuni [9]): 8 µg/mL (≈ 10.9 µM)
MIC (Campylobacter jejuni [10]): 8 µg/mL (≈ 10.9 µM)
MIC (Campylobacter jejuni [11]): 32 µg/mL (≈ 43.6 µM)
MIC (Campylobacter jejuni [12]): 32 µg/mL (≈ 43.6 µM)
MIC (Campylobacter jejuni [13]): 8 µg/mL (≈ 10.9 µM)
MIC (Campylobacter jejuni [14]): 16 µg/mL (≈ 21.8 µM)
MIC (Campylobacter jejuni [15]): > 512 µg/mL
MIC (Campylobacter jejuni [16]): 8 µg/mL (≈ 10.9 µM)
MIC (Campylobacter jejuni [17]): 128 µg/mL (≈ 174 µM)
MIC (Campylobacter jejuni [18]): 256 µg/mL (≈ 349 µM)
MIC (Campylobacter jejuni [19]): 4 µg/mL (≈ 5.45 µM)
MIC (Campylobacter jejuni [20]): 64 µg/mL (≈ 87.2 µM)
MIC (Campylobacter jejuni [21]): 256 µg/mL (≈ 349 µM)
MIC (Campylobacter jejuni [22]): 16 µg/mL (≈ 21.8 µM)
MIC (Campylobacter jejuni [23]): > 512 µg/mL
MIC (Campylobacter jejuni [24]): 8 µg/mL (≈ 10.9 µM)
MIC (Campylobacter jejuni [25]): 64 µg/mL (≈ 87.2 µM)
MIC (Campylobacter jejuni [26]): 64 µg/mL (≈ 87.2 µM)
MIC (Campylobacter jejuni [27]): 8 µg/mL (≈ 10.9 µM)
MIC (Campylobacter jejuni [28]): 128 µg/mL (≈ 174 µM)
MIC (Campylobacter jejuni [29]): 32 µg/mL (≈ 43.6 µM)
MIC (Campylobacter jejuni [30]): 16 µg/mL (≈ 21.8 µM)
MIC (Campylobacter jejuni [31]): 128 µg/mL (≈ 174 µM)
MIC (Campylobacter jejuni [32]): > 512 µg/mL
MIC (Campylobacter jejuni [33]): > 512 µg/mL
MIC (Campylobacter jejuni [34]): 32 µg/mL (≈ 43.6 µM)
MIC (Campylobacter jejuni [35]): > 512 µg/mL
MIC (Campylobacter jejuni [36]): 1 µg/mL (≈ 1.36 µM)
MIC (Campylobacter jejuni [37]): 32 µg/mL (≈ 43.6 µM)
MIC (Campylobacter jejuni [38]): 8 µg/mL (≈ 10.9 µM)
MIC (Campylobacter jejuni [39]): 8 µg/mL (≈ 10.9 µM)

From ChEMBL document CHEMBL1671637, “Development, stability, and molecular mechanisms of macrolide resistance in Campylobacter jejuni” (2008)
